# Data reported in patent US8241679B2, “Composition comprising the extract of crude drug complex having neuroprotective activity for preventing and treating stroke and neurodegenerative diseases” (Neumed Inc., priority 2007, dated 2012).
# Tested on: MCAo in rats
# Test: MCAo experimental model, infarct volume (TTC staining)
# Assay type: in vivo, Sprague-Dawley rat
# Conditions: positive control, 45 mg/kg
# Method: To determine the preventing effect of the extract of crude drug complex of the present invention on neuronal injury, following intraluminal suture method using animal model was performed by modifying well-mown method disclosed in the literature (Zea L. E. Stroke, 20, pp 84-91, 1989).
# 8-weeks old white male Sprague-Dawley rat weighing about 280 g was procured from Samtaco Co. Ltd. (Seoul), […] for 1 week providing with free access to water and feed and acclimated to experimental environment.
# The rat was anesthetized with 5% isoflurane gas (mixed gas with the gas mixture consisting of 70% N2O and 30% O2 gas and 5% isoflurane) and maintained with 1% isoflurane gas during experiment.
# The skin at the center of rat neck was excised and right CCA (common carotid artery) and ECA (external carotid artery) were isolated from neighboring tissue and nerves with care. […]
# The body temperature was monitored and maintained at 37±0.5° C.
# The caudal was excised and terminal tissue was discarded to obtain 6 numbers of brain slices with the thickness of 2 mm using by brain matrix. […] The volume of cerebral infarction region was calculated by the OPTIMAS program (Media Cybernetics Co., 6.51 version). To determine the exact volume of cerebral infarction region of right hemisphere excluding edema volume (A), the real volume of cerebral infarction (B) was calculated by following Empirical Formula 1 and 2. […]
compound,measurement,value
CN(C)c1ccc(O)c2c1C[C@H]1C[C@H]3[C@H](N(C)C)C(O)=C(C(N)=O)C(=O)[C@@]3(O)C(O)=C1C2=O [minocycline],infarct volume,20.5±2.85%
